Here are results for 23 molecules from US9815850B2, “Compounds, compositions and methods” (Denali Therapeutics Inc., priority 2016, dated 2017).

pIC50: −log10 of the molar value.

GST-hRIPK1 (8-327), sequence (Q13546 8-327): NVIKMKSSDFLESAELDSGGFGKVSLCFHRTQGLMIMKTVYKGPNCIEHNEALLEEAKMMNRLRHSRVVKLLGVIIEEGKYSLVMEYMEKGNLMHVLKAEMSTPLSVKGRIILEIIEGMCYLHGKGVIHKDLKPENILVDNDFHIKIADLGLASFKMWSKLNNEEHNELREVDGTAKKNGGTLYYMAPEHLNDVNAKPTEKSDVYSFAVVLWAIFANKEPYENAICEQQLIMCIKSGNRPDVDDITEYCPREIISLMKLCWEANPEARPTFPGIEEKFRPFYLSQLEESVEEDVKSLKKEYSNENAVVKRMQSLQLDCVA

One data set addresses GST-hRIPK1 (8-327) (Homo sapiens (Human), UniProt Q13546). Put plainly: Fluorescent Polarization Binding (FP Binding) assay. The note with it: 10 nM GST-hRIPK1 (8-327), 5 nM fluorescent labeled ligand; read-out: FP IC50. The method, then:
Fluorescent Polarization Binding (FP Binding) assay (Berger S. B. et al. […] Maki J. L. et al. […] Test Compounds were serially diluted in DMSO at 100 fold final concentrations in the assay (1% DMSO final). […] For negative control the enzyme addition was replaced by assay buffer only. After addition of 5 μL of fluorescent labeled ligand at twice the final concentrations in assay buffer, the plate was incubated at RT for 30 min.
What is called pIC50 is the negative decadic logarithm of the IC50, by convention in mol/L. Consider `CN1C(=O)[C@@H](NC(=O)c2nn(Cc3ccc(Cl)cn3)cc2F)COc2ccccc21` [Example 216, (S)-1-((5-chloropyridin-2-yl)methyl)-4-fluoro-N-(5-methyl-4-oxo-2,3,4,5-tetrahydrobenzo[b][1,4]oxazepin-3-yl)-1H-pyrazole-3-carboxamide], for which the pIC50 was 6.00 to 10.00.

For `C[C@H]1Oc2cccnc2N(C)C(=O)[C@H]1NC(=O)c1nnc(Cc2ccccc2)s1` [Example 217, 5-benzyl-N-((2R,3S)-2,5-dimethyl-4-oxo-2,3,4,5-tetrahydropyrido[3,2-b][1,4]oxazepin-3-yl)-1,3,4-thiadiazole-2-carboxamide], the pIC50 was 6.00 to 10.00.

As for `CN1C(=O)[C@@H](NC(=O)c2nnc(Cc3ccccc3)[nH]2)[C@H]2C[C@H]2c2cc(C#N)cnc21` [Example 218, 5-benzyl-N-((1aS,2S,8bR)-7-cyano-4-methyl-3-oxo-1,1a,2,3,4,8b-hexahydrocyclopropa[d]pyrido[2,3-b]azepin-2-yl)-4H-1,2,4-triazole-3-carboxamide], the pIC50 was 6.00 to 10.00.

For the molecule `CN1C(=O)[C@@H](NC(=O)c2ncc(Cc3cccc(C#N)c3)s2)CCc2cccnc21` [Example 219, (S)-5-(3-cyanobenzyl)-N-(9-methyl-8-oxo-6,7,8,9-tetrahydro-5H-pyrido[2,3-b]azepin-7-yl)thiazole-2-carboxamide], the pIC50 is 6.00 to 10.00. For `COc1cccc(Cn2cc(F)c(C(=O)N[C@H]3COc4ccccc4N(C)C3=O)n2)n1` [Example 220, (S)-4-fluoro-1-((6-methoxypyridin-2-yl)methyl)-N-(5-methyl-4-oxo-2,3,4,5-tetrahydrobenzo[b][1,4]oxazepin-3-yl)-1H-pyrazole-3-carboxamide], the pIC50 is 6.00 to 10.00. Same read-out and setting: then `C[C@H]1Oc2cccnc2N(C)C(=O)[C@H]1NC(=O)c1nnc(C(F)(F)c2ccccc2)o1` [Example 221, 5-(difluoro(phenyl)methyl)-N-((2R,3S)-2,5-dimethyl-4-oxo-2,3,4,5-tetrahydropyrido[3,2-b][1,4]oxazepin-3-yl)-1,3,4-oxadiazole-2-carboxamide], with 6.00 to 10.00; and `C[C@H]1Oc2cccnc2N(C)C(=O)[C@H]1NC(=O)c1noc(Cc2ccccc2)n1` [Example 222, 5-benzyl-N-((2R,3S)-2,5-dimethyl-4-oxo-2,3,4,5-tetrahydropyrido[3,2-b][1,4]oxazepin-3-yl)-1,2,4-oxadiazole-3-carboxamide], with 6.00 to 10.00. Same read-out and setting: then `CN1C(=O)[C@@H](NC(=O)c2nnc(Cc3ccc(F)cc3)o2)[C@H]2C[C@H]2c2nccnc21` [Example 223, 5-(4-fluorobenzyl)-N-((7S,7aS,8aR)-5-methyl-6-oxo-5,6,7,7a,8,8a-hexahydrocyclopropa[d]pyrazino[2,3-b]azepin-7-yl)-1,3,4-oxadiazole-2-carboxamide], with 6.00 to 10.00; and `CN1C(=O)[C@@H](NC(=O)c2nn(Cc3ncccn3)cc2F)COc2ccccc21` [Example 224, (S)-4-fluoro-N-(5-methyl-4-oxo-2,3,4,5-tetrahydrobenzo[b][1,4]oxazepin-3-yl)-1-(pyrimidin-2-ylmethyl)-1H-pyrazole-3-carboxamide], with 6.00 to 10.00; and `CN1C(=O)[C@@H](NC(=O)c2nnc(Cc3ccccc3)o2)CCc2ccccc21` [Example 225, (S)-5-benzyl-N-(1-methyl-2-oxo-2,3,4,5-tetrahydro-1H-benzo[b]azepin-3-yl)-1,3,4-oxadiazole-2-carboxamide], with 6.00 to 10.00. For the molecule `CN1C(=O)[C@@H](NC(=O)c2ncc(Cc3ccccn3)o2)[C@H]2C[C@H]2c2nccnc21` [Example 226], the negative-log IC50 (pIC50) is 6.00 to 10.00.

With `CN1C(=O)[C@@H](NC(=O)c2ncc(C(F)(F)c3ccccc3)o2)[C@H]2C[C@H]2c2nccnc21` [Example 227], the pIC50 was 6.00 to 10.00.

In another data set the test system is FADD-deficient Jurkat cells. Put plainly: Cellular necroptosis assay (human TNFα-induced). It counts as cell-based. The note with it: Homo sapiens, 48 h, human TNFα 10 ng/mL, viability after 48 h, read-out: Cell IC50. The method, then:
Ten concentrations of the test compounds were assessed in duplicate in two different test occasions. […] The day of the experiment cells were diluted to a density of […] (5,000 cells/well) with culture medium and added (40 μL) into the 384-well plate containing 0.2 μL/well of test compounds and reference compounds (CRCs) (200×). Cell plates were then incubated at 37° C.-5% CO2. After 30 min, necroptotic cell death was induced with human TNFα (10 ng/mL) and cell viability was evaluated 48 h later by measuring cellular ATP levels using CellTiter-Glo® kit (Promega). Luminescence was read by using Victor V (Perkin Elmer) multilabel plate reader.
As for `CN1C(=O)[C@@H](NC(=O)c2cc(Cc3ccccc3)on2)COc2cccnc21` [Example 142, (S)-5-Benzyl-N-(5-methyl-4-oxo-2,3,4,5-tetrahydropyrido[3,2-b][1,4]oxazepin-3-yl)isoxazole-3-carboxamide], the pIC50 was 9.15.

Turning to `CN1C(=O)[C@@H](NC(=O)c2nnc(Cc3cccc(C#N)c3)[nH]2)COc2cccnc21` [Example 161, (S)-5-(3-cyanobenzyl)-N-(5-methyl-4-oxo-2,3,4,5-tetrahydropyrido[3,2-b][1,4]oxazepin-3-yl)-4H-1,2,4-triazole-3-carboxamide], the pIC50 was 8.70.

For the molecule `CN1C(=O)[C@@H](NC(=O)c2nnc(Cc3cccc(C#N)c3)[nH]2)COc2ccccc21` [Example 163, (S)-5-(3-cyanobenzyl)-N-(5-methyl-4-oxo-2,3,4,5-tetrahydrobenzo[b][1,4]oxazepin-3-yl)-4H-1,2,4-triazole-3-carboxamide], the pIC50 is 9.00. On the same count and under the same terms, then `C[C@H]1Oc2ncccc2N(C)C(=O)[C@H]1NC(=O)c1nnc(Cc2ccccc2)o1` [Example 193, 5-benzyl-N-((3S,4R)-1,4-dimethyl-2-oxo-1,2,3,4-tetrahydropyrido[2,3-b][1,4]oxazepin-3-yl)-1,3,4-oxadiazole-2-carboxamide], with 6.68. On to `CN1C(=O)[C@@H](NC(=O)c2cn(Cc3ccccc3)nn2)[C@H]2C[C@H]2c2nccnc21` [Example 195, 1-benzyl-N-((7S,7aS,8aR)-5-methyl-6-oxo-5,6,7,7a,8,8a-hexahydrocyclopropa[d]pyrazino[2,3-b]azepin-7-yl)-1H-1,2,3-triazole-4-carboxamide], for which the pIC50 was 7.80. On the same count and under the same terms, then `CN1C(=O)[C@@H](NC(=O)c2cc(Cc3ccccc3)on2)[C@H]2C[C@H]2c2nccnc21` [Example 197, 5-benzyl-N-((7S,7aS,8aR)-5-methyl-6-oxo-5,6,7,7a,8,8a-hexahydrocyclopropa[d]pyrazino[2,3-b]azepin-7-yl)isoxazole-3-carboxamide], with 8.52; and `[2H]C([2H])([2H])N1C(=O)[C@@H](NC(=O)c2nn(Cc3ccccc3)cc2F)[C@@H](C)Oc2ncccc21` [Example 205, 1-benzyl-N-((3S,4R)-1-trideuteriomethyl-4-methyl-2-oxo-1,2,3,4-tetrahydropyrido[2,3-b][1,4]oxazepin-3-yl)-4-fluoro-1H-pyrazole-3-carboxamide], with 7.68.

Still in this data set, the particulars now being: Homo sapiens, 48 h, read-out: Cell IC50.
As for `CN1C(=O)[C@@H](NC(=O)c2nc(Cc3ccccc3)n[nH]2)COc2cccnc21` [Example 42, (S)-5-benzyl-N-(5-methyl-4-oxo-2,3,4,5-tetrahydropyrido[3,2-b][1,4]oxazepin-3-yl)-4H-1,2,4-triazole-3-carboxamide], the pIC50 is 9.22.

The data set is the same for the next values; noted with them: human TNFα 10 ng/mL, viability after 48 h, read-out: Cell IC50.
With `CN1C(=O)[C@@H](NC(=O)c2cc(Cc3ccccc3)on2)CC2(CC2)c2ccccc21` [Example 9, (S)-5-benzyl-N-(1-methyl-2-oxo-1,2,3,4-tetrahydrospiro[benzo[b]azepine-5,1′-cyclopropan]-3-yl)isoxazole-3-carboxamide], the pIC50 was 8.10.

Test system in a further data set: not given
Assay: not given
The note with it: in vivo.
Turning to `CN1C(=O)[C@@H](NC(=O)c2nnc(Cc3ccccc3)[nH]2)[C@H]2C[C@H]2c2ccccc21` [Example 46A], the “Rat unbound CL” value is given as 188 mL/min/kg.

The data set is the same for the next values; noted with them: male, Sprague-Dawley Crl:CD(SD), in vivo.
Regarding `CN1C(=O)[C@@H](NC(=O)c2ncn(Cc3cccc(C#N)c3)n2)COc2cccnc21` [Example 171, (S)-1-(3-cyanobenzyl)-N-(5-methyl-4-oxo-2,3,4,5-tetrahydropyrido[3,2-b][1,4]oxazepin-3-yl)-1H-1,2,4-triazole-3-carboxamide], the “Rat unbound CL” value is on record as 32 mL/min/kg.
